Assay [1] concerns Escherichia coli. In words: Induction of LsrB-dependent quorum sensing in Escherichia coli KX1446 assessed as expression of Lsr system at 40 uM by beta-galactosidase reporter assay. In general terms: A reporter such as luciferase makes a cellular process visible.
Assay [2] concerns Escherichia coli. In words: Ratio of compound activity over DPD activity for induction of LsrB-dependent quorum sensing in Escherichia coli KX1446.
In assay [3] the target is Autoinducer 2-binding periplasmic protein LuxP (Vibrio harveyi) (UniProt P54300). In words: Induction of LuxP-dependent quorum sensing in Vibrio harveyi MM32 assessed as induction of bioluminescence intensity after 4 hrs.
Autoinducer 2-binding periplasmic protein LuxP (Vibrio harveyi), sequence (P54300 whole entry): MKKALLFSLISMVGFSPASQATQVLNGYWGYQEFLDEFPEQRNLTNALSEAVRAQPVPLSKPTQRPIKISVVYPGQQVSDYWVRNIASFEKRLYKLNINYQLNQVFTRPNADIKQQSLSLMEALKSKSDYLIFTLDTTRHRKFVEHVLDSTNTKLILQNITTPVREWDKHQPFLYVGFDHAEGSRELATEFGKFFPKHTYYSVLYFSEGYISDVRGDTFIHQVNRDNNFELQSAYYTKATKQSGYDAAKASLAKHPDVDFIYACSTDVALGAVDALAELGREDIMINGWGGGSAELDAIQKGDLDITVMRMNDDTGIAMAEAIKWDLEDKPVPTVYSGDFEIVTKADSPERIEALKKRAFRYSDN
The target is the same in assay [4]. Description: Binding affinity to LuxP in Vibrio harveyi MM32 by FRET method.

Data on three compounds can be found in ChEMBL document CHEMBL1671774, “An efficient synthesis of the precursor of AI-2, the signalling molecule for inter-species quorum sensing” (Bioorg Med Chem, 2011).

Active and inactive are the calls of the source. No cut-off for these calls is given here.

Consider `C[C@@]1(O)OC[C@H](O)C1(O)O`, for which the result with Escherichia coli [1] was Active. Besides, the Ratio in the assay with Escherichia coli [2] worked out at 6.
For `C[C@]12OC[C@H](O)[C@@]1(O)O[B-](O)(O)O2`, in assay [3], the result was Active.
Take `CC(=O)C(=O)[C@@H](O)CO`: the result with Escherichia coli [1] was inactive. Also, the result in assay [3] and in assay [4] was Active.
